In the experiment the target is 5-hydroxytryptamine receptor 6 (Homo sapiens, UniProt P50406).

As usually defined, the Ki is the equilibrium dissociation constant of an inhibitor or competing ligand from its target. A low value points to tighter binding.

Sequence of 5-hydroxytryptamine receptor 6 (P50406 whole entry): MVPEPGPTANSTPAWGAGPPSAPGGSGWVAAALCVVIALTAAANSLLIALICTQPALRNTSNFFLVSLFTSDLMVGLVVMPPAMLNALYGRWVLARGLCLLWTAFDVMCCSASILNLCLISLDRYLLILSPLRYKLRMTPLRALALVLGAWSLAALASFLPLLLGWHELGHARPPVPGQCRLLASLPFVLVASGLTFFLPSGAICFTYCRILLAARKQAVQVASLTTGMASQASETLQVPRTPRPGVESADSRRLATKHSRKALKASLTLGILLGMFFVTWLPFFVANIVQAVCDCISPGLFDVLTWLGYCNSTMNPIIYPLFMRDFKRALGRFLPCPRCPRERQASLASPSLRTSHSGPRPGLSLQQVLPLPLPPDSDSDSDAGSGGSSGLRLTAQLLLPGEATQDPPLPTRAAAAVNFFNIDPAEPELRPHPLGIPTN

`CC(N)Cc1c[nH]c2ccc(OCc3cccs3)cc12` (stereo unspecified) [NSC_5311036] yielded a Ki of 398 nM.

These data come from BindingDB's records for doi:10.1016/s0028-3908(96)00171-2 (Smithkline Beecham Pharmaceuticals, 1997).
